According to ChEMBL document CHEMBL1146209, “In-silico fragment-based identification of novel angiogenesis inhibitors” (Bioorg Med Chem Lett, 2007):

test system: HUVEC; assay: Cytotoxicity against HUVEC after 24 hrs by MTT assay; assay type: cell-based; conditions: Homo sapiens

SMILES | IC50 [µM]
O=C(O)c1ccc(Nc2ccnc3cc(Cl)ccc23)cc1O | 90
O=c1c(-c2ccc(O)cc2)coc2cc(O)cc(O)c12 [GENISTEIN] | 88
Oc1ccc(Nc2ccnc3cc(Cl)ccc23)cc1 | 82
O=S(=O)(Nc1nccs1)c1ccc(Nc2ccnc3cc(Cl)ccc23)cc1 | 74
Clc1ccc(Nc2ccnc3cc(Cl)ccc23)cc1 | 88
Clc1ccc2c(NC3CCC(NC4CCCCC4)CC3)ccnc2c1 (centres undefined) | 13
O=C1c2ccccc2C(=O)C(CCCc2ccc(Oc3ccccc3)cc2)C1O (centres undefined) | 75
COc1ccc(CC(N)C(=O)N(C)C2C(CO)OC(n3cnc4c(N(C)C)ncnc43)C2O)cc1 (centres undefined) | 100
O=C1c2ccccc2C(=O)c2c1oc1c2ccc2ccccc21 | 63
